In BigSolDB 2.1:

O=P(c1ccccc1)(c1ccccc1)c1ccccc1
Details	solubility (mole fraction)
in benzene, 293.78 K	0.055
in benzene, 303.04 K	0.0747
in benzene, 314.12 K	0.0963
in benzene, 323.34 K	0.123
in benzene, 333.45 K	0.152
in ethyl acetate, 294.54 K	0.023
in ethyl acetate, 299.09 K	0.0275
in ethyl acetate, 303.3 K	0.0305
in ethyl acetate, 308.27 K	0.0348
in ethyl acetate, 313.72 K	0.0409
in ethyl acetate, 318.32 K	0.0496
in ethyl acetate, 323.21 K	0.0555
in ethyl acetate, 328.65 K	0.0659
in toluene, 294.42 K	0.0291
in toluene, 298.74 K	0.0346
in toluene, 303.15 K	0.0396
in toluene, 308.36 K	0.0487
in toluene, 313.53 K	0.0548
in toluene, 317.97 K	0.0666
in toluene, 323.13 K	0.0768
in toluene, 328.42 K	0.0882
in toluene, 333.77 K	0.0998
